Results on eight compounds are retold here after patent US20240390298A1, “CYCLOHEXYL BETA-HYDROXY ALKYL AMINES AND MEDICAL USES THEREOF” (ATROGI AB, priority 2021, published 2024).

Holding throughout (format): cell-based
In experiment [1] the test system is L6-myotubes. Nature of the experiment: Glucose uptake in L6-myotubes in the presence of the β2-antagonist ICI-118,551. As to conditions: differentiated L6-myotubes; compound 1×10^−5 M; ICI-118,551 1×10^−5 M. As for the experimental part:
L6-myoblasts were grown in Dulbecco's Modified Eagle's Medium (DMEM) containing 1 g/L glucose supplemented with 10% fetal bovine serum, 2 mM L-Glutamine, 50 U/mL penicillin, 50 μg/mL streptomycin and 10 mM HEPES. Cells were plated at 1×10^5 cells per mL in 24-well plates. After reaching 90% confluence the cells were grown in medium containing 2% FBS for 7 days where upon cells differentiated into myotubes.
Differentiated L6-myotubes were serum-starved overnight in medium containing 0.5% fatty-acid free BSA and were incubated with the β2-adrenergic receptor antagonist ICI-118,551 at a final concentration of 1×10^−5 M for 30 min. The cells were stimulated with a compound of the invention, at a final concentration of 1×10^−5 M. After 1 h 40 min the cells were washed twice with warm, glucose free medium or PBS and additional portions of the compound of the invention and the antagonist were added. After 20 min the cells were exposed to 50 nM ^3H-2-deoxyglucose for 10 min before washed with ice cold glucose free medium or PBS three times and lysed with 0.2 M NaOH, 400 μL/well, for 1 h at 60° C. The cell lysate was mixed with 4 mL scintillation buffer (Emulsifier Safe, Perkin Elmer) and the radioactivity was detected in a β-counter (Tri-Carb 4810TR, Perkin Elmer). The activity for each compound is compared to that of isoproterenol.

The test system of experiment [2] is L6-myotubes. Nature of the experiment: Measurement of intracellular cAMP levels in differentiated L6 cells (alpha screen cAMP kit), compared to isoproterenol. As to conditions: Rattus norvegicus, L6, 0.25 h, agonist 1×10^−5 M, 15 min, read-out: Biological example 2: intracellular cAMP levels, activity compared to that of isoproterenol. Put shortly: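 L6 myoblasts were differentiated into myotubes over 7 days in 2% FBS, then serum-starved overnight. Agonist at 1×10^−5 M final was applied for 15 min in HBSS with 1% BSA, 5 mM HEPES and 1 mM IBMX, pH 7.4. After ethanol extraction and lysis, cAMP was quantified by AlphaScreen, with activity expressed relative to isoproterenol.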

The subject of experiment [3] is L6-myotubes. Nature of the experiment: Glucose uptake in differentiated L6-myotubes (3H-2-deoxyglucose), compared to isoproterenol. As to conditions: agonist 1×10^−5 M, 50 nM 3H-2-deoxyglucose; for Emax at 10 µM: read-out: Biological example 1: glucose uptake, activity compared to that of isoproterenol. Put shortly:
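Serum-starved differentiated L6 myotubes stimulated with agonist at 1×10^−5 M for 1 h 40 min, re-dosed in glucose-free medium for 20 min, then given 50 nM ^3H-2-deoxyglucose for 10 min. Uptake read by β-counting of NaOH lysates; activity expressed relative to isoproterenol.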

As to `CC(C)(C[C@H]1CC[C@H](N)CC1)NC[C@H](O)c1cncc(F)c1` [Example 85, (R)-2-((1-((1r,4R)-4-Aminocyclohexyl)-2-methylpropan-2-yl)amino)-1-(5-fluoropyridin-3-yl)ethan-1-ol], the “Biological example 3: glucose uptake in the presence of the β2-antagonist ICI-118,551, activity compared to that of isoproterenol” value in the experiment with L6-myotubes [1] is recorded as “− (less than 25%)”. For the same compound, in the experiment with L6-myotubes [2], the Emax at 10 µM is less than 25%. Further, in the experiment on L6-myotubes [3], the “Biological example 1: glucose uptake, activity compared to that of isoproterenol” value is recorded as “+ + +”.

As to `COC(=O)[C@H]1CC[C@H](CC(C)(C)NC[C@H](O)c2cccc(F)c2)CC1` [Example 107, Methyl (1R,4r)-4-(2-(((R)-2-(3-Fluorophenyl)-2-hydroxyethyl)amino)-2-methylpropyl)cyclohexane-1-carboxylate], the “Biological example 3: glucose uptake in the presence of the β2-antagonist ICI-118,551, activity compared to that of isoproterenol” value in the experiment on L6-myotubes [1] is “− (less than 25%)”. Moreover, the Emax at 10 µM in the experiment with L6-myotubes [2] was less than 25%. The “Biological example 1: glucose uptake, activity compared to that of isoproterenol” value in the experiment with L6-myotubes [3] is recorded as “+ + +”.

Consider `COC(=O)[C@H]1CC[C@@H](CCC(C)(C)NC[C@H](O)c2cncc(F)c2)CC1` [Example 112, Methyl (1S,4s)-4-(3-(((R)-2-(5-fluoropyridin-3-yl)-2-hydroxyethyl)amino)-3-methylbutyl)cyclohexane-1-carboxylate], for which the “Biological example 3: glucose uptake in the presence of the β2-antagonist ICI-118,551, activity compared to that of isoproterenol” value in the experiment with L6-myotubes [1] was “− (less than 25%)”. Besides, in the experiment with L6-myotubes [2], the Emax at 10 µM lay in the range of 25 to 50%. In addition, in the experiment with L6-myotubes [3], the “Biological example 1: glucose uptake, activity compared to that of isoproterenol” value was “+ + +”.

`COC(=O)[C@H]1CC[C@H](CCC(C)(C)NC[C@H](O)c2cncc(F)c2)CC1` [Example 116, Methyl (1R,4r)-4-(3-(((R)-2-(5-fluoropyridin-3-yl)-2-hydroxyethyl)amino)-3-methylbutyl)cyclohexane-1-carboxylate]: the “Biological example 3: glucose uptake in the presence of the β2-antagonist ICI-118,551, activity compared to that of isoproterenol” value in the experiment with L6-myotubes [1] is reported as “− (less than 25%)”. Also, in the experiment with L6-myotubes [2], the Emax at 10 µM is less than 25%. Moreover, the “Biological example 1: glucose uptake, activity compared to that of isoproterenol” value in the experiment on L6-myotubes [3] was “+ + +”.

For `O[C@@H](CNCCCC1CCC(OCc2ccccc2)CC1)c1cncc(F)c1` (stereo partly drawn) [Example 54, (R)-2-((3-((1r,4S)-4-(Benzyloxy)cyclohexyl)propyl)amino)-1-(5-fluoro-pyridin-3-yl)ethan-1-ol], the Emax at 10 µM in the experiment on L6-myotubes [2] was less than 25%; in the experiment on L6-myotubes [3], 25 to 50%.

With `CO[C@H]1CCC[C@@H](C(C)(C)NC[C@H](O)c2cccc(F)c2)C1` (single isomer, unassigned) [Example 120], the Emax at 10 µM in the experiment with L6-myotubes [2] is less than 25%. Besides, the “Biological example 1: glucose uptake, activity compared to that of isoproterenol” value in the experiment on L6-myotubes [3] is recorded as “+ + +”.

Turning to `CC(C)(CC[C@H]1CC[C@H](C(=O)O)CC1)NC[C@H](O)c1cccc(F)c1` [Example 117, (1R,4r)-4-(3-(((R)-2-(3-Fluorophenyl)-2-hydroxyethyl)amino)-3-methyl-butyl)cyclohexane-1-carboxylic acid], the Emax at 10 µM in the experiment with L6-myotubes [2] and in the experiment with L6-myotubes [3] was less than 25% throughout.

In the case of `O[C@@H](CNC[C@H]1CC[C@@H](O)CC1)c1cncc(F)c1` [Example 28, (1S,4s)-4-((((R)-2-(5-Fluoropyridin-3-yl)-2-hydroxyethyl)amino)-methyl)cyclohexan-1-ol], the Emax at 10 µM in the experiment with L6-myotubes [2] is less than 25%; with L6-myotubes [3] it was 25 to 50%.
